# According to EP2662079A1 (Ordway Research Institute, Inc., priority 2012, dated 2013):
# Where “and” joins values, the source holds several entries; their conditions need not be identical. Equal values may be shown once.
# Legend:
# [1] = test system: ERK1/2; assay: MAPK activation (nuclear phosphorylated ERK1/2 immunoblot); type: cell-based; conditions: for effect on MAPK activation by T4: PD 98059 30 µmol/L or CGP41251 100 nmol/L for 30 minutes, then 10^-7 M T4
# Protocol: ECV304 endothelial cells were cultured in M199 medium with 0.25% hormone-depleted serum 13 for 2 days. […] Nuclear fractions were pre-pared from all samples by the method reported previously (see Li et al., Carcinogenesis 29:62-69 (2008)), the proteins separated by polyacrylamide gel electrophoresis, and transferred to membranes for immunoblotting with antibody to phosphorylated ERK 1/2.
# [2] = test system: chick chorioallantoic membrane (CAM); assay: Chorioallantoic membrane (CAM) model of angiogenesis; type: in vivo; conditions: for Mean Branch points: n=8
# Protocol: In vivo neovascularization was examined by methods described previously. 9-12 Ten-day-old chick embryos were purchased from SPAFAS (Preston, CT) and incubated at 37°C with 55% relative humidity. A hypodermic needle was used to make a small hole in the shell concealing the air sac, and a second hole was made on the broad side of the egg, directly over an avascular portion of the embryonic membrane that was identified by candling. A false air sac was created beneath the second hole by the application of negative pressure at the first hole, causing the CAM to separate from the shell. A window approximately 1.0 cm^2 was cut in the shell over the dropped CAM with a small-crafts grinding wheel (Dremel, division of Emerson Electric Co.), allowing direct access to the underlying CAM. FGF2 (1µg/mL) was used as a standard proangiogenic agent to induce new blood vessel branches on the CAM of 10-day-old embryos. Sterile disks of No. 1 filter paper (Whatman International) were pretreated with 3 mg/mL cortisone acetate and 1 mmol/L PTU and air dried under sterile conditions. Thyroid hormone, hormone analogs, FGF2 or control solvents, and inhibitors were then applied to the disks and the disks allowed to dry. The disks were then suspended in PBS and placed on growing CAMs. […] At 24 hours, the MAPK cascade inhibitor PD 98059 was also added to CAMs topically by means of the filter disks.
# After incubation at 37°C with 55% relative humidity for 3 days, the CAM tissue directly beneath each filter disk was resected from control and treated CAM samples. Tissues were washed 3X with PBS, placed in 35-mm Petri dishes (Nalge Nunc), and examined under an SV6 stereomicroscope (Zeiss) at X50 magnification. Digital images of CAM sections exposed to filters were collected using a 3-charge-coupled device color video camera system (Toshiba) and analyzed with Image-Pro software (Media Cybernetics). The number of vessel branch points contained in a circular region equal to the area of each filter disk were counted. One image was counted in each CAM preparation, and findings from 8 to 10 CAM preparations were analyzed for each treatment condition (thyroid hormone or analogs, FGF2, FGF2 antibody, PD 98059). In addition, each experiment was performed 3 times. The resulting angiogenesis index is the mean ± SEM of new branch points.
# [3] = test system: glioblastoma (GBM); conditions: mild hypothyroidism induced by PTU; cited from earlier work
# [4] = test system: transplantable liver tumor; conditions: PTU alone; cited from earlier work
# [5] = test system: Matrigel plugs; assay: Mouse Matrigel model of angiogenesis (plug hemoglobin); type: in vivo, mice (C57BL/6NCr); conditions: for Inhibition of FGF induced angiogenesis (grade): mouse matrigel model
# Protocol: Normal male mice (C57BL/6NCr) 6-8 weeks of age and weighing ~20 g were purchased from Taconic farm. Animals were housed 4 per cage, in controlled conditions of temperature (20-24 °C); humidity (60-70%) and 12 hrs. light/dark cycle provided with food and water ad libitum. […] Matrigel (BD Bioscience, San Jose CA) was thawed overnight at 4 °C and placed on ice. Aliquots of matrigel were placed into cold polypropylene tubes to prevent the matrigel from solidifying and the angiogenesis promoter added to matrigel with or without agonist. Mice were treated daily. Matrigel was subcutaneously injected as triple injection per animal at 100 µL/animal. At day 14 post plug implant all animals were killed in CO2 chamber and matrigel plugs were collected. […]
# The matrigel plugs dissected from the mice were carefully stripped of any remaining peritoneum. The plugs were placed into 0.5 mL tube of ddH2O and homogenized for 5-10 min. […] Absorbance was read with a Microplate Manager ELISA reader at 540 nm. […] Hemoglobin concentration is a reflection of the number of blood vessels in the plugs.
# [6] = test system: ECV304 endothelial cells; assay: FGF2 release from ECV304 endothelial cells (ELISA); type: cell-based
# Protocol: ECV304 endothelial cells were cultured in M199 medium supplemented with 10% fetal bovine serum. […] After 72 hours, the supernatants were harvested and assays for FGF performed without dilution using a commercial ELISA system (R&D Systems) (See Davis et al., Circ Res 94:1500-1506 (2004)).
# [7] = test system: FGF2 cDNA; assay: RT-PCR of FGF2 in ECV304 cells; type: cell-based; conditions: T4 10^-7 mol/L for 6 to 48 hours
# Protocol: RNA (1 µg) was subjected to reverse transcription-polymerase chain reaction (RT-PCR) using the Access RT-PCR system (Promega). Total RNA was reverse transcribed into cDNA at 48°C for 45 minutes, then denatured at 94°C for 2 minutes. Second-strand synthesis and PCR amplification were performed for 40 cycles with denaturation at 94°C for 30 s, annealing at 60°C for 60 s, and extension at 68°C for 120 s, with final ex-tension for 7 minutes at 68°C after completion of all cycles. PCR primers for FGF2 were as follows: FGF2 sense strand 5'-[…]-3' (SEQ ID NO:1), antisense strand 5' […]-3' (SEQ ID NO:2); the length of the PCR product was 734 bp. Primers for GAPDH included the sense strand 5'-[…]-3' (SEQ ID NO:3), and antisense strand 5'-[…]-3' (SEQ ID NO:4); the length of the PCR product was 218 bp. […] The target bands of the gel were quantified using LabImage software (Kapelan), and the value for [FGF2/GAPDH]X10 calculated for each time point.
# [8] = cited from earlier work
# [9] = FGF 100 ng + compound 10 µg/plug, n= 7-14
# [10] = CAM model, FGF (1.25 µg/ml) + compound at 10 µg/plug
structure (smiles),measurement,setting,value
CO[C@@H]1[C@H](N(C)C(=O)c2ccccc2)C[C@H]2O[C@]1(C)n1c3ccccc3c3c4c(c5c6ccccc6n2c5c31)C(=O)NC4 [CGP41251],effect on MAPK activation by T4,[1],blocked
COc1cccc(-c2cc(=O)c3ccccc3o2)c1N [PD 98059],effect on MAPK activation by T4,[1],inhibited
same,effect on blood vessel branching caused by T3 and T4,[2]; 3 µmol/L PD 98059,completely blocked
"CCCc1cc(=O)[nH]c(=S)[nH]1 [PTU, 6-N-propyl-2-thiouracil]",improvement of the duration of survival,[3],3 fold
same,growth rate versus control neoplasms,[4],no difference in growth rate
"CNC(Cc1cc(I)c(Oc2cc(I)c(O)c(I)c2)c(I)c1)C(=O)[O-].O.O.[K+] (centres unmarked) [T4 analog 10, Potassium 3-[4-(4-hydroxy-3,5-diiodophenoxy)-3,5-diiodophenyl]-2-(methylamino)propanoate dihydrate]",Hemoglobin (mg/mL)± SEM,"[5]; 10 µg/matrigel plug, n= 6-7",0.8 ± 0.2 mg/mL
"CCNC(Cc1cc(I)c(Oc2cc(I)c(O)c(I)c2)c(I)c1)C(=O)O (centres unmarked) [T4 analog 11, 2-(Ethylamino)-3-[4-(4-hydroxy-3,5-diiodophenoxy)-3,5-diiodophenyl]propanoic acid]",Mean stimulation of angiogenesis (%),[5]; 10 µg/matrigel plug,45±33%
same,Hemoglobin (mg/mL)± SEM,"[5]; 10 µg/matrigel plug, n= 6-7",0.6 ± 0.2 mg/mL
same,Mean % of stimulation (comparing to PBS),"[2]; CAM model, 0.1 µM",86.3 ± 9.4%
same,Mean Branch points,"[2]; CAM model, 0.1 µM, mean ± SEM",136± 12.8
"CC(C)(C)OC(=O)NC(Cc1cc(I)c(Oc2cc(I)c(OCC3CO3)c(I)c2)c(I)c1)C(=O)OCC1CO1 (centres unmarked) [T4 analog 14, Oxiran-2-ylmethyl-2-(tert-butoxycarbonylamino)-3-(4-(3,5-diiodo-4-(oxiran-2-ylmethoxy)phenoxy)-3,5-diiodophenyl)propanoate]",Hemoglobin (mg/mL)± SEM,"[5]; 10 µg/matrigel plug, n= 6-7",0.3 ± 0.1 mg/mL
"N[C@@H](Cc1cc(I)c(Oc2cc(I)c(O)c(I)c2)c(I)c1)C(=O)O [T4, L-thyroxine]",appearance of phosphorylated ERK1/2 in cell nuclei,[1]; T4 10^-7 mol/L,≤ 15 min
same,Hemoglobin (mg/mL)± SEM,[5]; T4 (0.1 µM),0.9 ± 0.2 mg/mL
same,Mean stimulation of angiogenesis (%),[5]; T4 (0.1 µM),100±22%
same,Hemoglobin (mg/mL)± SEM,"[5]; T4 alone, 10 µg/matrigcl plug, n= 25",1.2 ± 0.4 mg/mL
same,increase of FGF2 concentration in the medium,[6]; T4 (0.1 µmol/L) or T3 (0.01 µmol/L) for 3 days,1.4 fold
same,FGF2 (pg/mL/10^6 cells),"[6]; T4 (0.1 µmol/L), 3 days",39.2 ±2.8 pg/mL/10^6 cells
same,"increase in abundance of FGF2 cDNA, corrected for GAPDH content",[7],apparent by 6 hours
same,generation of new blood vessels from existing vessels promoted,[2]; 10^7-10-^9 M,two- to three-fold
same,Branch pts ± SEM,"[2]; CAM assay before conjugation, 0.1 µM",137.3 ± 8.8
same,increase in angiogenesis,"[2]; CAM model, 3 experiments (Figure 5A)",1.5 fold
same,Mean % of stimulation (comparing to PBS),"[2]; CAM model, 0.1 µM",87.7 ± 7%
same,Mean Branch points,"[2]; CAM model, 0.1 µM, mean ± SEM",137± 8
same,ANGIOGENESIS INDEX,"[2]; CAM model, 0.1uM, n = 8 per group",143.8 ± 7.9
same,increase in blood vessel branch formation,[2]; T4 0.1 µmol/L for 3 days,2.5 fold and 2.3 fold
same,pKa of the COOH (carboxylic acid) group,[8],~2.0
same,pKa of the NH2 (amino) group,[8],approximately 9.0
same,pKa of the PhOH (phenol) group,[8]; fluorescent quenching,6.2
"CC(C)(C)OC(=O)Cc1cc(I)c(Oc2cc(I)c(O)c(I)c2)c(I)c1 [Tetrac analog 3, tert-Butyl-2-(4-(4-hydroxy-3,5-diiodophenoxy)-3,5-diiodophenyl)acetate]",Hemoglobin (mg/mL)± SEM,[5]; [9],0.4 ± 0.1 mg/mL
same,Inhibition of FGF induced angiogenesis (grade),[5],strong (compounds were considered to be strong inhibitors if they achieved more than 50% inhibition as compared to the control)
same,Mean % Inhibition,[2]; [10],88±13%
same,Mean Branch points,[2]; [10],79±7
"O=C(Cc1cc(I)c(Oc2cc(I)c(O)c(I)c2)c(I)c1)NC1CCCCC1 [Tetrac analog 4, N-cyclohexyl-2-(4-(4-hydroxy-3.5-diiodophenoxy)-3,5-diiodophenyl)acetamide]",Hemoglobin (mg/mL)± SEM,[5]; [9],0.2 ± 0.1 mg/mL
same,Inhibition of FGF induced angiogenesis (grade),[5],strong (compounds were considered to be strong inhibitors if they achieved more than 50% inhibition as compared to the control)
"CC(C)[Si](OC(=O)Cc1cc(I)c(Oc2cc(I)c(O)c(I)c2)c(I)c1)(C(C)C)C(C)C [Tetrac analog 5, Triisopropylsilyl-2-(4-(4-hydroxy-3,5-diiodophenoxy)-3,5-diiodophenyl)acetate]",Hemoglobin (mg/mL)± SEM,[5]; [9],0.2 ± 0.1 mg/mL
same,Inhibition of FGF induced angiogenesis (grade),[5],strong (compounds were considered to be strong inhibitors if they achieved more than 50% inhibition as compared to the control)
"O=C(Cc1cc(I)c(Oc2cc(I)c(OCC3CO3)c(I)c2)c(I)c1)NC1CCCCC1 (centres unmarked) [Tetrac analog 6, N-cyclohexyl-2-(4-(3,5-diiodo-4-(oxiran-2-ylmethoxy)phenoxy)-3,5-diiodophenyl)acetamide]",Hemoglobin (mg/mL)± SEM,[5]; [9],0.7 ± 0.1 mg/mL
same,Inhibition of FGF induced angiogenesis (grade),[5],strong (compounds were considered to be strong inhibitors if they achieved more than 50% inhibition as compared to the control)
